Laboratory results reported in US12152038B2, “Vasopressin receptor antagonists and products and methods related thereto” (Neumora Therapeutics, Inc., priority 2017, dated 2024).

Key:
[1] = molecular target: T1, human Arginine Vasopressin Receptor 1a (AVPR1a) (Homo sapiens, UniProt P37288); experiment: Vasopressin V1a receptor antagonist assay (FLIPR calcium, CHO-AVPR1a cells); assay type: cell-based
T1 construct: expressed in transfected cells; host or cells: CHO (CHO-AVPR1a, kept under G418 selection)
T1 sequence (P37288 whole entry): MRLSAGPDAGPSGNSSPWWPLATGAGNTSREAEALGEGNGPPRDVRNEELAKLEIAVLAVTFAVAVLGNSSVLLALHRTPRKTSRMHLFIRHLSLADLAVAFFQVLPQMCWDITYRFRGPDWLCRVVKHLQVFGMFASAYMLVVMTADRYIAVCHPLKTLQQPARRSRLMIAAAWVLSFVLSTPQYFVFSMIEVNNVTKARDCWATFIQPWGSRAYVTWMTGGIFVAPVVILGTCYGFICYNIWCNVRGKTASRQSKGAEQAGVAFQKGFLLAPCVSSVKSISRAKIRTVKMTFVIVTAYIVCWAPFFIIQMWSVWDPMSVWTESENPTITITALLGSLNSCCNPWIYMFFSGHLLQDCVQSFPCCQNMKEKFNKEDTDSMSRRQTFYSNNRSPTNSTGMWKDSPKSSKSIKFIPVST
In short: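 CHO cells expressing human AVPR1a were loaded with Calcium-6 dye and preincubated with compound for 15 min at 37° C. Cells were then challenged with AVP at its daily-determined EC80, and FLIPR fluorescence was read. Compounds were tested in duplicate as 10-point 1:3 dilutions from a top final concentration of 3 μM.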

[2] = molecular target: T2, human Arginine Vasopressin Receptor V2 (AVPR2) (Homo sapiens, UniProt P30518); experiment: Vasopressin V2 receptor antagonist assay (TR-FRET cAMP, 1321N1 cells); assay type: cell-based
T2 construct: host or cells: 1321N1 (cAMPZen V2 assay ready frozen cells)
T2 sequence (P30518 whole entry): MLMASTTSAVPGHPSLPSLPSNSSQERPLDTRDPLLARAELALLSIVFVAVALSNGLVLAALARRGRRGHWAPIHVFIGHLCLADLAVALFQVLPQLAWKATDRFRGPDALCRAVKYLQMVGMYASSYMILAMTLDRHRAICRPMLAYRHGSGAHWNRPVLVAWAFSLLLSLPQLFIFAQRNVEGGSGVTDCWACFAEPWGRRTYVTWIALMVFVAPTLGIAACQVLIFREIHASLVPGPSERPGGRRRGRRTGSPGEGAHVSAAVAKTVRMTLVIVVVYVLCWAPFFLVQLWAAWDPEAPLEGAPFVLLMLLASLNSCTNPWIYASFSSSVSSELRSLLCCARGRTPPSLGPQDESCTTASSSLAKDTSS

| Structure (SMILES) | IC50 [1] [µM] | IC50 [2] [µM] |
| --- | --- | --- |
| CCC1COc2cc(Cl)ccc2N1C(=O)N1CC2(C1)CN(c1ccc(F)cn1)C2 (single isomer, unassigned) [1-55-B] | < 0.1 | < 0.1 |
| CC1COc2cc(Cl)ccc2N1C(=O)N1CC2(C1)CN(c1ncccc1F)C2 (single isomer, unassigned) [1-57-A] | < 0.1 | < 0.1 |
| CC1COc2cc(Cl)ccc2N1C(=O)N1CC2(C1)CN(c1cnccn1)C2 (single isomer, unassigned) [1-58-B] | < 0.1 | < 0.1 |
| COc1ccc2c(c1)OCC(C)N2C(=O)N1CC2(C1)CN(c1ccc(F)cn1)C2 (single isomer, unassigned) [1-59-B] | < 0.1 | 0.1 to 0.5 |
| CC1COc2cc(Cl)ccc2N1C(=O)N1CC2(C1)CN(c1ccccn1)C2 (single isomer, unassigned) [1-60-B] | < 0.1 | < 0.1 |
| CC1COc2cc(F)ccc2N1C(=O)N1CC2(C1)CN(c1cnccn1)C2 (single isomer, unassigned) [1-65-B] | < 0.1 | ≥ 1 |
| CC1COc2cc(F)ccc2N1C(=O)N1CC2(C1)CN(c1ccccn1)C2 (single isomer, unassigned) [1-66-B] | < 0.1 | 0.5 to 1 |
| CC1COc2cc(F)ccc2N1C(=O)N1CC2(C1)CN(c1ncccc1F)C2 (single isomer, unassigned) [1-67-A] | < 0.1 | 0.1 to 0.5 |
| CC1COc2cc(Cl)ccc2N1C(=O)N1CC2(C1)CN(c1ccc(F)cn1)C2 (single isomer, unassigned) [1-73-A] | < 0.1 | ≥ 1 |
| CC1COc2cc(Cl)ccc2N1C(=O)N1CC2(C1)CN(c1ccc(F)cn1)C2 (single isomer, unassigned) [1-73-B] | < 0.1 | < 0.1 |
| O=C(N1CC2(C1)CN(c1ccc(F)cn1)C2)N1CCC(O)c2cc(Cl)ccc21 (single isomer, unassigned) [13-1-B] |  | ≥ 1 |
| CC1COc2cc(Cl)ccc2N1C(=O)N1CC2(C1)CN(c1ncc(F)cn1)C2 (single isomer, unassigned) [18-2-B] |  | 0.1 to 0.5 |
| Cc1cnc(N2CC3(CN(C(=O)N4c5ccc(Cl)cc5OCC4C)C3)C2)nc1 (single isomer, unassigned) [20-13-B] | < 0.1 | < 0.1 |
| CC1COc2cc(Cl)ccc2N1C(=O)N1CC2(C1)CN(c1cc(=O)n(C)cn1)C2 (single isomer, unassigned) [20-14-B] | < 0.1 | 0.5 to 1 |
| CC1COc2cc(Cl)ccc2N1C(=O)N1CC2(C1)CN(c1nn(C)c3ncccc13)C2 (single isomer, unassigned) [20-15-B] | < 0.1 | < 0.1 |
| Cc1cccc(N2CC3(CN(C(=O)N4CCOc5cc(Cl)ccc54)C3)C2)n1 [1-3] | < 0.1 | 0.1 to 0.5 |
| O=C(N1CC2(C1)CN(c1cnc(F)cn1)C2)N1CCOc2cc(Cl)ccc21 [1-18] | < 0.1 | ≥ 1 |
| Cc1cnc(N2CC3(CN(C(=O)N4CCOc5cc(Cl)ccc54)C3)C2)cn1 [1-20] | < 0.1 | ≥ 1 |
| Cc1cncc(N2CC3(CN(C(=O)N4CCOc5cc(Cl)ccc54)C3)C2)n1 [1-22] | < 0.1 | ≥ 1 |
| Cc1nc(N2CC3(CN(C(=O)N4CCOc5cc(Cl)ccc54)C3)C2)ccc1F [1-30] | < 0.1 | 0.5 to 1 |
| N#Cc1cccc(N2CC3(CN(C(=O)N4CCOc5cc(Cl)ccc54)C3)C2)n1 [1-39] | < 0.1 | ≥ 1 |
| COc1nccnc1N1CC2(CN(C(=O)N3CCOc4cc(Cl)ccc43)C2)C1 [1-43] | < 0.1 | ≥ 1 |

| Structure (SMILES) | IC50 [1] [µM] | IC50 [2] [µM] |
| --- | --- | --- |
| Cc1cc(F)nc(N2CC3(CN(C(=O)N4CCOc5cc(Cl)ccc54)C3)C2)c1 [1-45] | < 0.1 | ≥ 1 |
| O=C(N1CC2(C1)CN(c1ccc(F)c(F)n1)C2)N1CCOc2cc(Cl)ccc21 [1-49] | < 0.1 | ≥ 1 |
| O=C(N1CC2(C1)CN(c1cc(F)cc(F)n1)C2)N1CCOc2cc(Cl)ccc21 [1-51] | < 0.1 | ≥ 1 |
| N#Cc1ccnc(N2CC3(CN(C(=O)N4CCOc5cc(Cl)ccc54)C3)C2)c1 [1-53] | < 0.1 | ≥ 1 |
| CC1COc2cc(Cl)ccc2N1C(=O)N1CC2(C1)CN(c1ccccn1)C2 (stereo not shown) [1-60] | < 0.1 | 0.1 to 0.5 |
| O=C(N1CC2(C1)CN(c1ccc(F)cn1)C2)N1CCOc2cc(F)ccc21 [1-64] | < 0.1 | ≥ 1 |
| CC1COc2cc(F)ccc2N1C(=O)N1CC2(C1)CN(c1ncccc1F)C2 (stereo not shown) [1-67] | < 0.1 | ≥ 1 |
| COc1ccc(N2CC3(CN(C(=O)N4CCOc5cc(Cl)ccc54)C3)C2)nc1 [1-68] | < 0.1 | ≥ 1 |
| O=C(N1CC2(C1)CN(c1cccc(F)n1)C2)N1CCOc2cc(Cl)ccc21 [1-69] | < 0.1 | ≥ 1 |
| O=C(N1CC2(C1)CN(c1cc(F)ccn1)C2)N1CCOc2cc(Cl)ccc21 [1-70] | < 0.1 | ≥ 1 |
| O=C(N1CC2(C1)CN(c1cccnn1)C2)N1CCOc2cc(Cl)ccc21 [1-71] | < 0.1 | ≥ 1 |
| O=C(N1CC2(C1)CN(c1cccnc1)C2)N1CCOc2cc(Cl)ccc21 [1-72] | < 0.1 |  |
| CC1COc2cc(Cl)ccc2N1C(=O)N1CC2(C1)CN(c1noc3ccccc13)C2 (stereo not shown) [21-1, (6-(benzo[d]isoxazol-3-yl)-2,6-diazaspiro[3.3]heptan-2-yl)(7-chloro-3-methyl-2,3-dihydro-4H-benzo[b][1,4]oxazin-4-yl)methanone] | < 0.1 | ≥ 1 |
| CC1COc2cc(Cl)ccc2N1C(=O)N1CC2(C1)CN(c1ncccc1C#N)C2 (stereo not shown) [21-2] | < 0.1 | ≥ 1 |
| Cc1cncc(N2CC3(CN(C(=O)N4c5ccc(Cl)cc5OCC4C)C3)C2)n1 (stereo not shown) [21-3] | < 0.1 | < 0.1 |
| Cc1cnnc(N2CC3(CN(C(=O)N4c5ccc(Cl)cc5OCC4C)C3)C2)c1 (stereo not shown) [21-4] | < 0.1 | 0.1 to 0.5 |
| CC1COc2cc(Cl)ccc2N1C(=O)N1CC2(C1)CN(c1ncncc1F)C2 (stereo not shown) [21-5] | < 0.1 | 0.1 to 0.5 |
| CC1COc2cc(Cl)ccc2N1C(=O)N1CC2(C1)CN(c1ccncn1)C2 (stereo not shown) [21-6] | < 0.1 | ≥ 1 |
| Cc1nccc(N2CC3(CN(C(=O)N4c5ccc(Cl)cc5OCC4C)C3)C2)n1 (stereo not shown) [21-8] | < 0.1 | 0.1 to 0.5 |
| CCc1cnc(N2CC3(CN(C(=O)N4c5ccc(Cl)cc5OCC4C)C3)C2)nc1 (stereo not shown) [21-9] | < 0.1 | 0.1 to 0.5 |
| CC1COc2cc(Cl)ccc2N1C(=O)N1CC2(C1)CN(c1nccc(C(F)(F)F)n1)C2 (stereo not shown) [21-10] | < 0.1 | 0.1 to 0.5 |
| Cc1cc(N2CC3(CN(C(=O)N4c5ccc(Cl)cc5OCC4C)C3)C2)ncn1 (stereo not shown) [21-11] | < 0.1 | 0.5 to 1 |
